# Values of other authors in patent US12678435B2, “Prevention and/or treatment of contrast-induced acute kidney injury” (Saghmos Therapeutics Inc., priority 2016, dated 2026).
# System: patients with high serum creatinine levels undergoing coronary angiography/angioplasty
# Settings: four Phase 2 clinical trials; compared with isotonic saline; published in Onbasili 2007, Rahman 2012, Shehata 2014, Liu 2015
structure (smiles),measurement,value
COc1ccc(CN2CCNCC2)c(OC)c1OC [Trimetazidine],reducing the risk of contrast-induced nephropathy (CIN),more effective than isotonic saline in reducing the risk of contrast-induced nephropathy (CIN)
